In PubChem BioAssay AID328 (DTP/NCI, 2004):
Toxic doses and inconclusive results are not listed. Rule for the calls: active = survival T/C of 150% or more; inactive = T/C below 125% in these data.

Tested on: BDF1 mice, P388 leukemia ip, median survival T/C
Assay: NCI In Vivo Anticancer Drug Screen. Data for tumor model P388 Leukemia (intraperitoneal) in B6D2F1 (BDF1) mice
Conditions: endpoint: median survival time, higher = longer survival
Method in brief: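 Read-out is survival of treated animals expressed relative to the vehicle group, as a T/C ratio.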

[1] = dose: 100.0 mg/kg/injection, schedule: Q04DX003 (ip), vehicle: Klucel (hydroxypropylcellulose) (HPC)
[2] = dose: 200.0 mg/kg/injection, schedule: Q04DX003 (ip), vehicle: Klucel (hydroxypropylcellulose) (HPC)

Measured: T/C

CC(=O)CC(c1ccc2c(c1)OCO2)c1c(O)c2ccccc2oc1=O (stereo not drawn)
inactive: dose: 0.39 mg/kg/injection, schedule: Q01DX009 (ip), vehicle: saline 88 % of control | dose: 0.78 mg/kg/injection, schedule: Q01DX009 (ip), vehicle: saline 106 % of control | dose: 0.78 mg/kg/injection, schedule: Q04DX003 (ip), vehicle: saline 89 % of control | dose: 1.56 mg/kg/injection, schedule: Q01DX009 (ip), vehicle: saline 106 % of control | dose: 1.56 mg/kg/injection, schedule: Q04DX003 (ip), vehicle: saline 98 % of control | dose: 3.12 mg/kg/injection, schedule: Q04DX003 (ip), vehicle: saline 89 % of control | dose: 6.25 mg/kg/injection, schedule: Q04DX003 (ip), vehicle: saline 89 % of control | dose: 12.5 mg/kg/injection, schedule: Q04DX003 (ip), vehicle: saline 102 % of control

N=C(N)CCNC(=O)C1CCC(N)=N1 (stereo not drawn)
inactive: dose: 2.0 mg/kg/injection, schedule: Q01DX009 (ip), vehicle: saline 91 % of control | dose: 4.0 mg/kg/injection, schedule: Q01DX009 (ip), vehicle: saline 100 % of control | dose: 8.0 mg/kg/injection, schedule: Q01DX009 (ip), vehicle: saline 108 % of control

COc1ccc(CC2c3cc(OC)c(OC)cc3CCN2C(=O)c2ccccc2)cc1OC (stereo not drawn)
inactive: dose: 50.0 mg/kg/injection, schedule: Q01DX005 (ip), vehicle: saline with Tween-80 91 % of control | dose: 100.0 mg/kg/injection, schedule: Q01DX005 (ip), vehicle: saline with Tween-80 91 % of control

Cc1ccc(C(O)(CS(C)=O)c2ccco2)cc1 (stereo not drawn)
inactive: dose: 50.0 mg/kg/injection, schedule: Q01DX009 (ip), vehicle: saline + alcohol 98 % of control | dose: 100.0 mg/kg/injection, schedule: Q01DX009 (ip), vehicle: saline + alcohol 90 % of control

COc1cc(OC)c(/C=C/c2ccncn2)c(OC)c1
inactive: dose: 50.0 mg/kg/injection, schedule: Q01DX009 (ip), vehicle: saline with Tween-80 101 % of control | dose: 100.0 mg/kg/injection, schedule: Q01DX009 (ip), vehicle: saline with Tween-80 108 % of control | dose: 200.0 mg/kg/injection, schedule: Q01DX009 (ip), vehicle: saline with Tween-80 117 % of control

NS(=O)(=O)c1c([N+](=O)[O-])ncn1C1OC(COC(=O)c2ccccc2)C(OC(=O)c2ccccc2)C1OC(=O)c1ccccc1 (stereo not drawn)
inactive: dose: 25.0 mg/kg/injection, schedule: Q04DX003 (ip), vehicle: saline 105 % of control | dose: 50.0 mg/kg/injection, schedule: Q04DX003 (ip), vehicle: saline 100 % of control | dose: 100.0 mg/kg/injection, schedule: Q04DX003 (ip), vehicle: saline 121 % of control | dose: 200.0 mg/kg/injection, schedule: Q04DX003 (ip), vehicle: saline 124 % of control

C/C(N=Nc1ccc([N+](=O)[O-])cc1)=N\Nc1ccccc1
inactive: dose: 100.0 mg/kg/injection, schedule: Q01DX009 (ip), vehicle: Klucel (hydroxypropylcellulose) (HPC) 94 % of control | [1] 91 % of control | dose: 200.0 mg/kg/injection, schedule: Q01DX009 (ip), vehicle: Klucel (hydroxypropylcellulose) (HPC) 100 % of control | [2] 87 % of control | dose: 400.0 mg/kg/injection, schedule: Q01DX009 (ip), vehicle: Klucel (hydroxypropylcellulose) (HPC) 100 % of control | dose: 400.0 mg/kg/injection, schedule: Q04DX003 (ip), vehicle: Klucel (hydroxypropylcellulose) (HPC) 104 % of control

Cc1cnc2c(N)[nH]nc2n1
inactive: dose: 50.0 mg/kg/injection, schedule: Q04DX003 (ip), vehicle: Klucel (hydroxypropylcellulose) (HPC) 86 % of control | [1] 109 % of control | [2] 100 % of control

CCn1c2ccc([N+](=O)[O-])cc2c2c([N+](=O)[O-])cccc21
inactive: dose: 100.0 mg/kg/injection, schedule: Q01DX001 (ip), vehicle: saline with Tween-80 110 % of control | dose: 200.0 mg/kg/injection, schedule: Q01DX001 (ip), vehicle: saline with Tween-80 100 % of control | dose: 400.0 mg/kg/injection, schedule: Q01DX001 (ip), vehicle: saline with Tween-80 94 % of control

CC(C)=NNS(=O)(=O)c1ccccc1
inactive: dose: 50.0 mg/kg/injection, schedule: Q04DX003 (ip), vehicle: saline with Tween-80 95 % of control | dose: 100.0 mg/kg/injection, schedule: Q04DX003 (ip), vehicle: saline with Tween-80 90 % of control | dose: 200.0 mg/kg/injection, schedule: Q04DX003 (ip), vehicle: saline with Tween-80 95 % of control

CNc1cc(C(C)C)ccc1C
inactive: dose: 32.5 mg/kg/injection, schedule: Q01DX009 (sc), vehicle: olive oil, sesame oil, peanut oil 104 % of control | dose: 65.0 mg/kg/injection, schedule: Q01DX009 (sc), vehicle: olive oil, sesame oil, peanut oil 104 % of control | dose: 100.0 mg/kg/injection, schedule: Q04DX003 (sc), vehicle: olive oil, sesame oil, peanut oil 104 % of control | dose: 130.0 mg/kg/injection, schedule: Q01DX009 (sc), vehicle: olive oil, sesame oil, peanut oil 100 % of control | dose: 200.0 mg/kg/injection, schedule: Q04DX003 (sc), vehicle: olive oil, sesame oil, peanut oil 109 % of control | dose: 400.0 mg/kg/injection, schedule: Q04DX003 (sc), vehicle: olive oil, sesame oil, peanut oil 118 % of control
